For test [1], the target named is T1, PCSK9 (Homo sapiens, UniProt Q8NBP7).
T1 construct: Biotinylated PCSK9 was obtained commercially; purchased
Briefly: PCSK9 Alexa FRET Plus TR-FRET assay (displacement of AlexaFluor647 tagged cyclic peptide Reagent B). The test is classed as binding. Particulars: 0.5 nM biotinylated PCSK9, 960 nM AF cyclic peptide Reagent B, Ki calculated from IC50 and KD of AF peptide. As for the experimental part:
(§1) The following is a description of the assays used to determine activity of compounds of the invention, and any comparator compounds reported, toward PCSK9 antagonism. Biotinylated PCSK9 was obtained commercially.
A solution containing 1 nM biotinylated PCSK9+2.5 nM Lance Streptavidin Europium (Strep-Eu) is made in 50 mM HEPES pH 7.4, 0.15 M NaCl, 5 mM CaCl2, 0.01% BSA, and 0.01% Surfactant P20. A separate solution containing 1920 nM of the AlexaFluor tagged cyclic peptide is made in the same buffer system. An Echo is used to transfer 0.075 ul of compound plus 0.675 ul of DMSO to each well of an assay plate followed by the addition of 15 ul of PCSK9+Stept-Eu and 15 ul of AF peptide. The final assay volume is 30.750 ul containing 0.5 nM PCSK9, 1.25 nM Strep-Eu, and 960 nM AF cyclic peptide. The reaction is incubated at room temperature for at least two hours prior to fluorescence measurements using an Envision Multilabel Reader. IC50 values are determined by fitting data to a sigmoidal dose-response curve using nonlinear regression. Ki is then calculated from the IC50 and the KD of AF cyclic peptide. Counts (B-counts) of the europium-labeled PCSK9 are followed to observe if compounds are adversely affecting PCSK9. A fall off of the B-counts is likely indicates a false positive of inhibition. Data from this procedure is reported as “P=‘numerical value’ (nanomolar)”
Activity data obtained by one or both of the above-described procedures is reported for selected example compounds of the invention in the following format: Example No.: A (standard TR Fret)=‘numerical value’; P (Alexa Fret plus standard TR Fret)=‘numerical value’/, note that all values reported are nanomolar.

Test [2] deals with T1, PCSK9. Put plainly: PCSK9 Alexa FRET Ultra TR-FRET assay (displacement of AlexaFluor647 tagged cyclic peptide). In kind it is binding. Particulars: 0.5 nM biotinylated PCSK9, 960 nM AF cyclic peptide, Ki calculated from IC50 and KD of AF peptide. On the procedure: as §1
A solution containing 1 nM biotinylated PCSK9+2.5 nM Lance Streptavidin Europium (Strep-Eu) is made in 50 mM HEPES pH 7.4, 0.15 M NaCl, 5 mM CaCl2, 0.01% BSA, and 0.01% Surfactant P20. A separate solution containing 1920 nM of the AlexaFluor tagged cyclic peptide is made in the same buffer system. An Echo is used to transfer 0.015 ul of compound plus 0.735 ul of DMSO to each well of an assay plate followed by the addition of 15 ul of PCSK9+Stept-Eu and 15 ul of AF peptide. The final assay volume is 30.750 ul containing 0.5 nM PCSK9, 1.25 nM Strep-Eu, and 960 nM AF cyclic peptide. The reaction is incubated at room temperature for at least two hours prior to fluorescence measurements using an Envision Multilabel Reader. IC50 values are determined by fitting data to a sigmoidal dose-response curve using nonlinear regression. Ki is then calculated from the IC50 and the KD of AF cyclic peptide. Counts (B-counts) of the europium-labeled PCSK9 are followed to observe if compounds are adversely affecting PCSK9. A fall off of the B-counts is likely indicates a false positive of inhibition. Data from this procedure is reported as “Ki Ultra=‘numerical value’ (data reported is nanomolar)”

For orientation: Ki means a dissociation constant, usually derived from enzyme kinetics or from competition with a known ligand.

T1 sequence (Q8NBP7 153-692): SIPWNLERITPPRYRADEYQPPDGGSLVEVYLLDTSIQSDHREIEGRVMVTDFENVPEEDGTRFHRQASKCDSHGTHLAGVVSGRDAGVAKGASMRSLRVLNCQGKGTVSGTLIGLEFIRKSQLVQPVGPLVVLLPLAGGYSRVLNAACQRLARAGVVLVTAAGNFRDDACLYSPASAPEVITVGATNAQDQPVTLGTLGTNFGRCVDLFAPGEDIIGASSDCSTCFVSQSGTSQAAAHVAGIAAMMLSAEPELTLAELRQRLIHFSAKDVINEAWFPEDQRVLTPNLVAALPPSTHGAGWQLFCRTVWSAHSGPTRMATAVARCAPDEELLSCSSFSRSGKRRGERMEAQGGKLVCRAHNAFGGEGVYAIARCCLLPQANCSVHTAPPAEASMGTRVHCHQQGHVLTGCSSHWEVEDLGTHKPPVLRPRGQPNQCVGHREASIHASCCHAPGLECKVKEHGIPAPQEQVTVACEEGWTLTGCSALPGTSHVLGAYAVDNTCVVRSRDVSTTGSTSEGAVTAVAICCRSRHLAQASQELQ

As to `COc1ccc(C[C@@H]2NC(=O)[C@H]([C@@H](C)O)NC(=O)[C@@H]3[C@@H]4CCN3C(=O)[C@@H]3Cc5cn(c6ccc(F)cc56)CCCCCCN(Cc5ccc(cc5)CCNC(=O)[C@]5(C)CCCN5C2=O)C(=O)CCC(=O)N[C@@H](CCCC[N+](C)(C)C)C(=O)N[C@H](CNC(=O)CCOCCOCC[N+](C)(C)C)C(=O)N[C@@H](Cc2cccc(c2)CNC(=O)CO4)C(=O)N3)cc1` (stereo in doubt) [Ex-24], the Ki is 8.12 pM in test [1] (Ki Plus) and 7.67 pM in test [2] (Ki Ultra).

With `COc1ccc(C[C@@H]2NC(=O)[C@H]([C@@H](C)O)NC(=O)[C@@H]3[C@@H]4CCN3C(=O)[C@@H]3Cc5cn(c6ccc(F)cc56)CCCCCCN(Cc5ccc(cc5)CCNC(=O)[C@]5(C)CCCN5C2=O)C(=O)CCC(=O)N[C@@H](C)C(=O)N[C@H](CN)C(=O)N[C@@H](Cc2cccc(c2)CNC(=O)CO4)C(=O)N3)cc1` [Ex-01], the Ki in test [1] (Ki Plus) is below 5.58 pM; in test [2] (Ki Ultra), 4.6 pM.

Turning to `COc1ccc(C[C@@H]2NC(=O)[C@H]([C@@H](C)O)NC(=O)[C@@H]3[C@@H]4CCN3C(=O)[C@@H]3Cc5cn(c6ccc(F)cc56)C/C=C\CCCN(Cc5ccc(cc5)CCNC(=O)[C@]5(C)CCCN5C2=O)C(=O)CCC(=O)N[C@@H](CNC(=O)CCOCCOCC[N+](C)(C)C)C(=O)N[C@H](C)C(=O)N[C@@H](Cc2cccc(c2)CNC(=O)CO4)C(=O)N3)cc1` [Ex-04], the Ki is at most 5.58 pM in test [1] (read-out: Ki Plus) and 4.71 pM in test [2] (read-out: Ki Ultra). As for `COc1ccc(C[C@@H]2NC(=O)[C@H]([C@@H](C)O)NC(=O)[C@@H]3[C@@H]4CCN3C(=O)[C@@H]3Cc5cn(c6ccc(F)cc56)C/C=C/CCCN(Cc5ccc(cc5)CCNC(=O)[C@]5(C)CCCN5C2=O)C(=O)CCC(=O)N[C@@H](CNC(=O)CCOCCOCC[N+](C)(C)C)C(=O)N[C@H](C)C(=O)N[C@@H](Cc2cccc(c2)CNC(=O)CO4)C(=O)N3)cc1` [Ex-05], the results for the Ki in test [1] (read-out: Ki Plus) and in test [2] (read-out: Ki Ultra) were 9.62 pM and 33 pM, respectively.

As for `COc1ccc(C[C@@H]2NC(=O)[C@H]([C@@H](C)O)NC(=O)[C@@H]3[C@@H]4CCN3C(=O)[C@@H]3Cc5cn(c6ccc(F)cc56)C/C=C/CCCN(Cc5ccc(cc5)CCNC(=O)[C@]5(C)CCCN5C2=O)C(=O)CCC(=O)N[C@@H](C)C(=O)N[C@H](CNC(=O)CCCCC[N+](C)(C)C)C(=O)N[C@@H](Cc2cccc(c2)CNC(=O)CO4)C(=O)N3)cc1` [Ex-06], the results for the inhibitory constant (Ki) in test [1] (read-out: Ki Plus) and in test [2] (read-out: Ki Ultra) were 5.68 pM and 3.42 pM, respectively. Regarding `COc1ccc(C[C@@H]2NC(=O)[C@H]([C@@H](C)O)NC(=O)[C@@H]3[C@@H]4CCN3C(=O)[C@@H]3Cc5cn(c6ccc(F)cc56)C/C=C/CCCN(Cc5ccc(cc5)CCNC(=O)[C@]5(C)CCCN5C2=O)C(=O)CCC(=O)N[C@H]2CN(C(=O)CCOCCOCC[N+](C)(C)C)CCCCC(=O)NC[C@@H](NC2=O)C(=O)N[C@@H](Cc2cccc(c2)CNC(=O)CO4)C(=O)N3)cc1` [Ex-07], the Ki in test [1] (read-out: Ki Plus) was 59.1 pM; in test [2] (read-out: Ki Ultra), 67.5 pM. As for `COc1ccc(C[C@@H]2NC(=O)[C@H]([C@@H](C)O)NC(=O)[C@@H]3[C@@H]4CCN3C(=O)[C@@H]3Cc5cn(c6ccc(F)cc56)Cc5cn(nn5)Cc5cc(ccc5CNC(=O)CCC(=O)N[C@@H](C)C(=O)N[C@H](CNC(=O)CCOCCOCC[N+](C)(C)C)C(=O)N[C@@H](Cc5cccc(c5)CNC(=O)CO4)C(=O)N3)CCNC(=O)[C@]3(C)CCCN3C2=O)cc1` [Ex-08], the Ki in test [1] (read-out: Ki Plus) was 15.7 pM; in test [2] (read-out: Ki Ultra), 68.3 pM. Regarding `COc1ccc(C[C@@H]2NC(=O)[C@H]([C@@H](C)O)NC(=O)[C@@H]3[C@@H]4CCN3C(=O)[C@@H]3Cc5cn(c6ccc(F)cc56)CCCCN(Cc5ccc(cc5)CCNC(=O)[C@]5(C)CCCN5C2=O)C(=O)CCC(=O)N[C@@H](C)C(=O)N[C@H](CNC(=O)CCOCCOCC[N+](C)(C)C)C(=O)N[C@@H](Cc2cccc(c2)CNC(=O)CO4)C(=O)N3)cc1` [Ex-28], the Ki in test [1] (read-out: Ki Plus) was at most 5.58 pM. For the compound `COc1ccc(C[C@@H]2NC(=O)[C@H]([C@@H](C)O)NC(=O)[C@@H]3[C@@H]4CCN3C(=O)[C@@H]3Cc5cn(c6ccc(F)cc56)CCCCCCN(Cc5ccc(cc5)CCNC(=O)[C@]5(C)CCCN5C2=O)C(=O)CCC(=O)N[C@@H](C)C(=O)N[C@H](CNC(=O)CCOCC[N+](C)(C)C)C(=O)N[C@@H](Cc2cccc(c2)CNC(=O)CO4)C(=O)N3)cc1` [Ex-31], in test [1] (Ki Plus), the inhibition constant Ki was below 5.58 pM.

Values taken from patent US12209145B2, “PCSK9 antagonist compounds” (Merck Sharp & Dohme LLC, priority 2018, dated 2025).
